How the values were obtained:
[1] = target: T1, mouse PXR (Mus musculus, UniProt O54915); assay: GAL-mouse PXR luciferase reporter gene assay in transfected CV-1 cells; format: cell-based; details: for fold activation of GAL-mouse PXR / activation of GAL-mouse PXR (in words): 10 μM; for activation of GAL-mouse PXR (in words): CV-1 cells, FIG. 3(a), FIG. 8(a)
T1 sequence (O54915 104-431): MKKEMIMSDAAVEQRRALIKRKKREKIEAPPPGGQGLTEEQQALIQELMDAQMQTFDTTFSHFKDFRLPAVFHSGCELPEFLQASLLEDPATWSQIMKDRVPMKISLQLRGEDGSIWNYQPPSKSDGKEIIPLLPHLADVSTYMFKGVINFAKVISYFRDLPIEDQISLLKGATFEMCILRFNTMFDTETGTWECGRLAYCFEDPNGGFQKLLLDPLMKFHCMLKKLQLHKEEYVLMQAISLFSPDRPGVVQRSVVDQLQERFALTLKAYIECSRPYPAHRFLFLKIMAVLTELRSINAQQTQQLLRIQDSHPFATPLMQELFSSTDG
Procedure: (§1) CV-1 cells were transiently transfected with a GAL-mouse PXR expression vector, a GAL4 reporter construct, and a β-galactosidase vector as an internal control. Where noted, the bile acid transporter NTCP was added to the transfection to promote the transport of membrane-impermeable bile acids. Transfected cells were exposed to the indicated compounds (10 μM each), and fold activation was determined using luciferase and β-galactosidase enzyme activity assays. […] The transfected CV-1 cells were treated with multiple concentrations of each sterol. Error bars in this figure and subsequent figures represent the standard error of the mean (SEM) from representative experiments.
It is questioned whether β-cholestane-3α, 7α, 12α-triol (Triol) levels were elevated in whole liver extracts from CYP27 −/− mice. To show the level of 5β-cholestane-3α, 7α, 12α-triol in mouse liver extract, wild-type or CYP27 −/−mouse liver tissue (0.5 g) was extracted with 7.5 ml of ethyl acetate/methanol (2:1, vol/vol) along with 5β-cholestane-3β,5α,6β-triol (25 μg) as an internal control for extraction efficiency. […] The extraction was repeated three times, and the organic fraction was pooled and evaporated. To remove the vast excess of cholesterol that interferes with subsequent gas chromatography-mass spectroscopy analysis, the evaporated residue was dissolved in 0.5 ml of chloroform/acetone (35:25, vol/vol) and applied to a Bond Elut SI cartridge (Varian, 500 mg). Cholesterol was removed by washing with 6 ml of chloroform/acetone (35:25, vol/vol), and sterols were eluted with 7 ml of chloroform/acetone/methanol (35:25:20, vol/vol/vol). The sterol fraction was evaporated and dissolved in acetonitrile, and a portion was silylated with N,O-bis(trimethylsilyl)-trifluoroacetamide containing 1% trimethylchlorosilane (Pierce). The silylated material was analyzed by using a Shimadzu model GC-17A gas chromatograph with a QP5000 mass spectral detector and a Hewlett-Packard Ultra 2 (cross-linked-siloxane) column. The injector port was kept at 250° C., interface temperature was kept at 280° C., and oven temperature was kept at 50° C. followed by a gradient of 30° C. min^−1 up to 300° C. The electron impact ionization source was at 70 eV. 5β-cholestane-3α, 7α, 12α-triol levels were determined by comparison to a standard curve. For transfection studies, the sterol fraction was dissolved in DMSO and added to the cell-culture media. containing DMEM with 10% delipidated FBS.

[2] = target: T2, full-length mouse PXR (Mus musculus, UniProt O54915); assay: Full-length mouse PXR reporter assay with rat cyp3a regulatory element in CV-1 cells; format: cell-based; details: 10 μM, FIG. 3(b)
T2 sequence (O54915 1-431): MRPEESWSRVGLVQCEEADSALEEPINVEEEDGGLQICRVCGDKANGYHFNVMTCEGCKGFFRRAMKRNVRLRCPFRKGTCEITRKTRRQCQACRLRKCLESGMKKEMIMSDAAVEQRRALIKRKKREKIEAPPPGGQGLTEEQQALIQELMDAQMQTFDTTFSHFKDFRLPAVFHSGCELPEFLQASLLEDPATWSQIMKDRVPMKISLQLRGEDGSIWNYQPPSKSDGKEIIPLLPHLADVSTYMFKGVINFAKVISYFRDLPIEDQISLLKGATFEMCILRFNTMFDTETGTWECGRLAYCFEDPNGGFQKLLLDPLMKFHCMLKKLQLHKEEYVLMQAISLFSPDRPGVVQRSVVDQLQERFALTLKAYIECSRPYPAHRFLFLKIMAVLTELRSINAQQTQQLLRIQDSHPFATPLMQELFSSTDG
Procedure: as §1, with “assays. PCN refers to pregnenolone-16α-carbonitrile which is an effective agonist to mouse PXR.” for “assays.”, “experiments. In some cases, the error bars are not visible because they are negligible relative to the scale of the figure” for “experiments.”
To further confirm that 5β-cholestane-3α, 7α, 12α-triol and 5β-cholestan-3α, 7α, 12α, 25-tetrol activate mouse PXR, the effect of these compounds on full-length mouse PXR was examined using a reporter construct containing a regulatory element from the rat cyp3a gene that binds to the DNA binding domain of mouse PXR. Blumberg et al., SXR, a novel steroid and xenobioticsensing nuclear receptor, Gene & Dev. 12: 3195-3205 (1998).

[3] = test system: CYP3A4; details: reported by Furster & Wikvall 1999; read-out: Michaelis constant (Km) as a CYP3A4 substrate; cited from earlier work
[4] = target: T3, human PXR ligand binding domain (Homo sapiens, UniProt O75469); assay: In vitro ligand displacement assay with [3H]SR12813; details: 37.5 nM [3H]SR12813; 5 μM hyperforin, 30 μM Triol, 30 μM Tetrol; FIG. 4
T3 sequence (O75469 107-434): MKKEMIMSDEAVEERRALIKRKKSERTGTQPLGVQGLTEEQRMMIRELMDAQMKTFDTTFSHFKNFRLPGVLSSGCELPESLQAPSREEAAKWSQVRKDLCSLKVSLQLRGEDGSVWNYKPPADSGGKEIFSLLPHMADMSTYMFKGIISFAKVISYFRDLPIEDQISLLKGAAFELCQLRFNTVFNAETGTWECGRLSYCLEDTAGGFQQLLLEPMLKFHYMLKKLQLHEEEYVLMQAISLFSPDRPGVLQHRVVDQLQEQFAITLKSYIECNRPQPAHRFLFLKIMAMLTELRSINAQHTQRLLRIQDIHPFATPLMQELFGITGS
Procedure: The amount of [^3H]SR12813 associated with human PXR is expressed in cpm.
To determine whether a molecule or compound interacts directly with a PXR or is a PXR ligand, an in vitro ligand displacement assay is commonly used. […] In the ligand displacement assay, the ligand binding domain of a PXR is synthesized or expressed and purified. A known PXR ligand is radio-labeled and incubated with the purified ligand binding domain of the PXR. A molecule or compound suspected to be a PXR ligand is then added into the incubated mixture. Radioactivity reading is taken using a scintillation counter. If the molecule or compound competes with the known PXR ligand for the ligand binding domain of the PXR, the molecule or compound is expected to displace some of the radio-labeled known PXR agonist and reduce the radioactivity reading. Accordingly, the reduction of radioactivity reading indicates whether the molecule or compound is a PXR ligand and the extent to which the molecule or compound competes with the known PXR ligand.
An in vitro ligand displacement assay was used to determine whether 5β-cholestane-3α, 7α, 12α-triol interacts directly with the ligand binding domain of PXR. Because radiolabeled [^3H]SR12813 are available for human PXR but not mouse PXR, human PXR was used to examine whether 5β-cholestane-3α, 7α, 12α-triol could compete for binding of human PXR to a tritiated SR12813. […]

[5] = test system: CYP3A; details: cited from earlier work
[6] = test system: mice; assay: Tribromoethanol-induced sleep test; format: in vivo, mouse; details: i.p. 0.35 mg/g
Description: Wild type and cyp27-null mice received an i.p. injection of tribromoethanol, and their individual sleep times are plotted. Wild type mice are represented by squares and CYP27-null mice (CYP27 −/−) are represented by circles. Wild type male, n=6; cyp27-1-male, n=5; Wild type female, n=6; cyp27-1-female, n=6. **, P<0.01; ***, P<0.001.
Because PXR is a master regulator of small-molecule clearance, continuous activation of PXR in CYP27-null mice should produce a physiologic state of enhanced resistance to endogenous and exogenous toxins. To test this in a physiological setting, mice received an i.p. injection of the anesthetic agent tribromoethanol (0.35 mg/g of body weight). Drug-induced anesthesia was measured until the animals had regained sufficient consciousness to fully right themselves. […] Thus, the tribromoethanol-induced sleep test provides a direct and quantitative measure of hepatic PXR activity in live animals. […] In female mice, the difference was even more significant: 35.8±1.6 min for CYP27-null mice compared with 49.6±2.0 min for WT (P<0.001). […] When 5β-cholestane-3α, 7α, 12α-triol itself is accumulating to pathological levels, the ability of this sterol to activate cyp3a11 (FIG. 5) becomes highly significant as CYP3A establishes an alternate or salvage pathway for the elimination of excess 5β-cholestane-3α, 7α, 12α-triol (FIG. 1). […]

With `C[C@H](CCCC(C)(C)O)[C@H]1CC[C@H]2[C@@H]3[C@H](O)C[C@@H]4C[C@H](O)CC[C@]4(C)[C@H]3C[C@H](O)[C@]12C` [5β-cholestane-3α, 7α, 12α, 25-tetrol] the “fold activation of GAL-mouse PXR” value [1] was 16 fold.

With `CC(C)CCC[C@@H](C)[C@H]1CC[C@H]2[C@@H]3[C@H](O)C[C@@H]4C[C@H](O)CC[C@]4(C)[C@H]3C[C@H](O)[C@]12C` [5β-cholestane-3α, 7α, 12α-triol] the EC50 [1] was no less than 3 µM, the “fold activation of GAL-mouse PXR” value [1] was 31 fold and the “activation of full-length mouse PXR (in words)” value [2] was “activated full-length mouse PXR”. The Km [3] was 6 µM.

For `CC(C)CCC[C@@H](C)[C@H]1CC[C@H]2[C@@H]3C[C@@H](O)[C@@]4(O)C[C@@H](O)CC[C@]4(C)[C@H]3CC[C@]12C` [5β-cholestane-3β,5α,6β-triol], the “activation of GAL-mouse PXR (in words)” value [1] was “does not activate mouse PXR”.

For `CC(CCC[C@@H](C)[C@H]1CC[C@H]2[C@@H]3[C@H](O)C[C@@H]4C[C@H](O)CC[C@]4(C)[C@H]3C[C@H](O)[C@]12C)C(=O)O` (stereo partly drawn) [5β-cholestanoic acid-3α,7α,12α-triol], the “activation of GAL-mouse PXR (in words)” value [1] was “failed to activate mouse PXR” and the “displacement of [3H]SR12813 from human PXR (in words)” value [4] was “failed to displace”.

For `COc1cc2c(cc1O)CCN[C@]21CS[C@@H]2c3c(OC(C)=O)c(C)c4c(c3[C@H](COC1=O)N1[C@@H]2[C@H]2c3c(cc(C)c(OC)c3O)C[C@@H]([C@@H]1O)N2C)OCO4` [ET-743, Ecteinascidin-743], the “inhibition of the induction of CYP3A by SR12813 (in words)” value [5] is listed as “completely inhibits”.

With `C[C@H](CCC(=O)O)[C@H]1CC[C@H]2[C@@H]3[C@H](O)C[C@@H]4C[C@H](O)CC[C@]4(C)[C@H]3CC[C@]12C` [chenodeoxycholic acid] the “activation of GAL-mouse PXR (in words)” value [1] was “failed to activate mouse PXR”.

In the case of `OCC(Br)(Br)Br` [tribromoethanol], the “time to awakening after tribromoethanol (mean±SEM)” value (“time to awakening … (mean±SEM)” for short) ([6]; female CYP27-null mice) is reported as 35.8 ± 1.6 min, the “time to awakening … (mean±SEM)” value ([6]; female WT mice) is reported as 49.6 ± 2.0 min and the “time to awakening … (mean±SEM)” value ([6]; male CYP27-null mice) is reported as 30.6 ± 2.9 min. The “time to awakening … (mean±SEM)” value ([6]; male WT mice) was 42.2 ± 1.9 min.
